{"source": "ChEMBL document CHEMBL1125517", "about": "“Synthesis and antifolate evaluation of 10-ethyl-5-methyl-5,10- dideazaaminopterin and an alternative synthesis of 10-ethyl-10- deazaaminopterin (edatrexate)” (J Med Chem, 1992)", "key": {"[1]": {"test_system": "L1210", "test": "In vitro inhibition of L1210 cell growth", "assay_type": "functional, cell-based", "conditions": "Mus musculus"}, "[2]": {"test_system": "L1210", "test": "Compound was evaluated for influx of L1210 cells", "assay_type": "functional, cell-based", "conditions": "Mus musculus"}}, "note": "pIC50: −log10 of the molar value."}
{"smiles": "CCC(Cc1cnc2nc(N)nc(N)c2n1)c1ccc(C(=O)NC(CCC(=O)O)C(=O)O)cc1", "note": "(centres undefined)", "values": [{"measurement": "pIC50", "setting": "[1]", "value": 7.19}, {"measurement": "Km", "setting": "[2]", "value": 1.08, "unit": "µM"}]}
{"smiles": "CN(Cc1cnc2nc(N)nc(N)c2n1)c1ccc(C(=O)N[C@@H](CCC(=O)O)C(=O)O)cc1", "note": "[METHOTREXATE]", "values": [{"measurement": "pIC50", "setting": "[1]", "value": 8.47}, {"measurement": "Km", "setting": "[2]", "value": 3.51, "unit": "µM"}]}
